# Test system: HTLV-1
# Test: Inhibition of HTLV-1: Tax-1 protein expression by western blotting in HUT102 cells
# Type: cell-based, Human T-lymphotropic virus (HTLV)
# Conditions: HUT102 (HTLV-1 chronically infected) cells, 10 μM daily for three days; western blot, normalised by tubulin, related to DMSO treated cells; triplicate
# Procedure: To determine whether the compounds described above could act as HTLV inhibitors, a screen was performed on HUT102 (HTLV-1 chronically infected) cells.
# Cells were plated at a density of 150 000 cells per well in 96 wells plates and treated daily with 10 μM of compounds for three days.
# Cells were then harvested and an aliquot was used for cytotoxicity evaluation with Cell Titer (Promega).
# The remaining cells was washed in phosphate buffer saline (PBS) and lysed for protein quantification with Bradford Assay (Sigma).
# Then, HTLV Tax-1 protein expression was evaluated from 30 μg of total proteins by western blotting analysis.
# Tax-1 expression was normalised by tubulin expression and related to control (DMSO treated) cells. Each compound was tested in triplicate.
smiles,measurement,value
"COc1ccc(Nc2ccc3c(N4CCN(C)CC4)ccnc3c2)cc1 [Compound 166, N-(4-methoxyphenyl)-4-(4-methylpiperazin-1-yl)quinolin-7-amine]",reduced Tax-1 expression when compared to control,80%

# — patent US9827237B2, “Compounds useful for treating diseases caused by retroviruses” (ABIVAX, priority 2013, dated 2017)
